≈ marks a conversion by molar mass, not a printed value. Where a name gives a salt, the structure may show the parent alone. Read-outs that look alike come from different tables or passages of the source.
How the values were obtained:
[1] = test system: E.Coli Juhl; test: Second in vitro antibacterial test, MIC (BHIB); format: cell-based; settings: Brain Heart Infusion Broth (BHIB)
[2] = test system: Strep. pyogenes EES 61; test: Second in vitro antibacterial test, MIC (BHIB); format: cell-based
[3] = test system: Stap. Aureus CMX 553; test: Second in vitro antibacterial test, MIC (BHIB); format: cell-based; settings: Brain Heart Infusion Broth (BHIB)
[4] = test system: Ps.Aeruginosa A5007; test: Second in vitro antibacterial test, MIC (BHIB); format: cell-based; settings: Brain Heart Infusion Broth (BHIB)
[5] = physchem
[6] = Escherichia coli, read-out: MIC
[7] = Streptococcus pyogenes, EES61, Brain Heart Infusion Broth (BHIB), read-out: MIC
[8] = Staphylococcus aureus, read-out: MIC
[9] = Pseudomonas aeruginosa, read-out: MIC
[10] = Brain Heart Infusion Broth (BHIB)

| MIC [1, 6] [µg/mL] | MIC [2, 7] [µg/mL] | MIC [3, 8] [µg/mL] | MIC [4, 9] [µg/mL] | solubility ([5]; pH 7.4) [µg/mL] | solubility ([5]; water) [µg/mL] | MIC [1] [µg/mL] | MIC [2, 10] [µg/mL] | MIC [3] [µg/mL] | MIC [4] [µg/mL] | Structure (SMILES) |
| --- | --- | --- | --- | --- | --- | --- | --- | --- | --- | --- |
| 25 (≈ 40.5 µM) | 100 (≈ 162 µM) | 25 (≈ 40.5 µM) | > 100 | – | – | – | – | – | – | CCC[C@H](NC(=O)CNC(=O)CN)C(=O)NC1CCN(c2nc3c(cc2F)c(=O)c(C(=O)O)cn3-c2ccc(F)cc2F)C1 (stereo partly drawn) [Example 30] |
| – | – | – | – | 2500 (≈ 4120 µM) | 20000 (≈ 33000 µM) | – | – | – | – | CSCC[C@H](NC(=O)[C@H](C)N)C(=O)NC1CCN(c2nc3c(cc2F)c(=O)c(C(=O)O)cn3-c2ccc(F)cc2F)C1 (stereo partly drawn) [Example 55n, 7-(3-Ala-Met-amino-1-pyrrolidinyl)-6-fluoro-1-(2,4-difluorophenyl)-1,4-dihydro-4-oxo-1,8-naphthyridine-3-carboxylic acid] |
| – | – | – | – | – | – | 0.78 (≈ 1.55 µM) | 1.56 (≈ 3.1 µM) | 0.39 (≈ 0.776 µM) | 6.2 (≈ 12.3 µM) | CCCC(N)C(=O)NC1CCN(c2cc3c(cc2F)c(=O)c(C(=O)O)cn3-c2ccc(F)cc2F)C1 (stereo not drawn) [Example 26b] |
| – | – | – | – | 60 (≈ 92.5 µM) | 23000 (≈ 35500 µM) | – | – | – | – | CSCC[C@H](NC(=O)[C@@H](N)CC(C)C)C(=O)NC1CCN(c2nc3c(cc2F)c(=O)c(C(=O)O)cn3-c2ccc(F)cc2F)C1 (stereo partly drawn) [Example 55p, 7-(3-Leu-Met-amino-1-pyrrolidinyl)-6-fluoro-1-(2,4-difluorophenyl)-1,4-dihydro-4-oxo-1,8-naphthyridine-3-carboxylic acid] |
| – | – | – | – | – | – | 0.78 (≈ 1.61 µM) | 1.56 (≈ 3.22 µM) | 0.78 (≈ 1.61 µM) | 6.2 (≈ 12.8 µM) | CCCC(N)C(=O)NC1CCN(c2cc3c(cc2F)c(=O)c(C(=O)O)cn3-c2ccc(F)cc2)C1 (stereo not drawn) [Example 26h] |
| – | – | – | – | 190 (≈ 301 µM) | 19000 (≈ 30100 µM) | – | – | – | – | CC(C)C[C@H](NC(=O)[C@@H](N)CC(C)C)C(=O)NC1CCN(c2nc3c(cc2F)c(=O)c(C(=O)O)cn3-c2ccc(F)cc2F)C1 (stereo partly drawn) [Example 55q, 7-(3-Leu-Leu-amino-1-pyrrolidinyl)-6-fluoro-1-(2,4-difluorophenyl)-1,4-dihydro-4-oxo-1,8-naphthyridine-3-carboxylic acid] |
| – | – | – | – | 2000 (≈ 3400 µM) | 26000 (≈ 44200 µM) | – | – | – | – | CC(C)C[C@H](NC(=O)[C@H](C)N)C(=O)NC1CCN(c2nc3c(cc2F)c(=O)c(C(=O)O)cn3-c2ccc(F)cc2F)C1 (stereo partly drawn) [Example 55r, 7-(3-Ala-Leu-amino-1-pyrrolidinyl)-6-fluoro-1-(2,4-difluorophenyl)-1,4-dihydro-4-oxo-1,8-naphthyridine-3-carboxylic acid] |
| – | – | – | – | – | – | 0.2 (≈ 0.449 µM) | 3.1 (≈ 6.96 µM) | 0.39 (≈ 0.875 µM) | 1.56 (≈ 3.5 µM) | CC(C)CC(N)C(=O)NC1CCN(c2nc3c(cc2F)c(=O)c(C(=O)O)cn3C2CC2)C1 (stereo not drawn) [Example 26o] |
| 0.78 (≈ 1.69 µM) | 0.78 (≈ 1.69 µM) | 1.56 (≈ 3.38 µM) | 12.5 (≈ 27.1 µM) | – | – | – | – | – | – | NCC(=O)NC1CCN(c2nc3c(cc2F)c(=O)c(C(=O)O)cn3-c2ccc(F)cc2F)C1 (stereo not drawn) [Example 7] |
| – | – | – | – | 310 (≈ 465 µM) | 22000 (≈ 33000 µM) | – | – | – | – | CSCC[C@H](NC(=O)[C@@H](N)CCSC)C(=O)NC1CCN(c2nc3c(cc2F)c(=O)c(C(=O)O)cn3-c2ccc(F)cc2F)C1 (stereo partly drawn) [Example 55o, 7-(3-Met-Met-amino-1-pyrrolidinyl)-6-fluoro-1-(2,4-difluorophenyl)-1,4-dihydro-4-oxo-1,8-naphthyridine-3-carboxylic acid] |
| 3.12 (≈ 5.83 µM) | 3.12 (≈ 5.83 µM) | 3.12 (≈ 5.83 µM) | 5 (≈ 9.34 µM) | – | – | – | – | – | – | CSCCC(N)C(=O)NC1CCN(c2nc3c(cc2F)c(=O)c(C(=O)O)cn3-c2ccc(F)cc2F)C1 (stereo not drawn) [Example 23] |
| – | – | – | – | – | – | 3.12 | 100 | 100 | >100 | Cl.Cl.NCCCC[C@H](N)C(=O)NC1CCN(c2nc3c(cc2F)c(=O)c(C(=O)O)cn3-c2ccc(F)cc2F)C1 (stereo partly drawn) [Example 46, 7-(3-Lys-amino-1-pyrrolidinyl)-1-(2,4-difluorophenyl)-6-fluoro-1,4-dihydro-4-oxo-1,8-naphthyridine-3-carboxylic acid dihydrochloride] |
| – | – | – | – | 400 | > 35000 | – | – | – | – | NC(=O)C[C@H](N)C(=O)NC1CCN(c2nc3c(cc2F)c(=O)c(C(=O)O)cn3-c2ccc(F)cc2F)C1 (stereo partly drawn) [Example 41, 7-(3-L-Asparagine-amino-1-pyrrolidinyl)-1-(2,4-difluorophenyl)-6-fluoro-1,4-dihydro-4-oxo-1,8-naphthyridine-3-carboxylic acid hydrochloride] |
| – | – | – | – | 80 (≈ 143 µM) | 6890 (≈ 12300 µM) | – | – | – | – | CCC[C@H](NC(=O)CN)C(=O)NC1CCN(c2nc3c(cc2F)c(=O)c(C(=O)O)cn3-c2ccc(F)cc2F)C1 (stereo partly drawn) [Example 52] |
| – | – | – | – | 410 (≈ 814 µM) | > 10000 | – | – | – | – | CC(C)C(N)C(=O)NC1CCN(c2nc3c(cc2F)c(=O)c(C(=O)O)cn3-c2ccc(F)cc2F)C1 (stereo not drawn) [Example 19] |
| 12.5 | 25 | 25 | > 100 | 30 | > 35000 | – | – | – | – | CS(=O)(=O)CC[C@H](N)C(=O)NC1CCN(c2nc3c(cc2F)c(=O)c(C(=O)O)cn3-c2ccc(F)cc2F)C1 (stereo partly drawn) [Example 31c, 7-[3-L-Methioninesulfone-Amino-1-Pyrrolidinyl]-1-(2,4-Difluorophenyl)-6-Fluoro-1,4-Dihydro-4-Oxo 1,8-Naphthyridine-3-Carboxylic Acid Hydrochloride] |
| 0.5 (≈ 1.05 µM) | – | 2 (≈ 4.21 µM) | 16 (≈ 33.7 µM) | 120 (≈ 252 µM) | > 20000 | – | – | – | – | CC(N)C(=O)NC1CCN(c2nc3c(cc2F)c(=O)c(C(=O)O)cn3-c2ccc(F)cc2F)C1 (stereo not drawn) [Example 17] |
| 0.39 (≈ 0.803 µM) | 1.56 (≈ 3.21 µM) | 1.56 (≈ 3.21 µM) | 6.2 (≈ 12.8 µM) | 240 (≈ 494 µM) | > 9000 | – | – | – | – | CCCC(N)C(=O)NC1CCN(c2nc3c(cc2F)c(=O)c(C(=O)O)cn3-c2ccc(F)cc2)C1 (stereo not drawn) [Example 26i] |
| 1.56 (≈ 3.01 µM) | 6.2 (≈ 12 µM) | 1.56 (≈ 3.01 µM) | 25 (≈ 48.3 µM) | 140 (≈ 271 µM) | > 35000 | – | – | – | – | CC(C)CC(N)C(=O)NC1CCN(c2nc3c(cc2F)c(=O)c(C(=O)O)cn3-c2ccc(F)cc2F)C1 (stereo not drawn) [Example 21] |
| 64 | 32 | 16 | > 64 | 300 | > 100000 | – | – | – | – | N[C@@H](Cc1cnc[nH]1)C(=O)NC1CCN(c2nc3c(cc2F)c(=O)c(C(=O)O)cn3-c2ccc(F)cc2F)C1 (stereo partly drawn) [Example 44c, 7-[3-L-Histidine-Amino-1-Pyrrolidinyl)-1-(2,4-Difluorophenyl)-6-Fluoro-1,4-Dihydro-4-oxo-1,8-Naphthyridine-3-Carboxylic Acid Dihydrochloride] |
| – | – | – | – | – | – | 1.56 (≈ 3.72 µM) | 6.2 (≈ 14.8 µM) | 1.56 (≈ 3.72 µM) | 12.5 (≈ 29.8 µM) | CCC[C@H](N)C(=O)NC1CCN(c2nc3c(cc2F)c(=O)c(C(=O)O)cn3CC)C1 (stereo partly drawn) [Example 26ff] |
| – | – | – | – | 2400 | 4100 | – | – | – | – | N[C@@H](CC(=O)O)C(=O)NC1CCN(c2nc3c(cc2F)c(=O)c(C(=O)O)cn3-c2ccc(F)cc2F)C1 (stereo partly drawn) [Example 45, 7-(3-L-Asp-amino-1-pyrrolidinyl)-1-(2,4-difluorophenyl)-6-fluoro-1,4-dihydro-4-oxo-1,8-naphthyridine-3-carboxylic acid hydrochloride] |
| 12.5 (≈ 22 µM) | 12.5 (≈ 22 µM) | 12.5 (≈ 22 µM) | 50 (≈ 88.1 µM) | 60 (≈ 106 µM) | > 90000 | – | – | – | – | NC(Cc1ccc(O)cc1)C(=O)NC1CCN(c2nc3c(cc2F)c(=O)c(C(=O)O)cn3-c2ccc(F)cc2F)C1 (stereo not drawn) [Example 13] |
| 1.56 (≈ 3.11 µM) | 1.56 (≈ 3.11 µM) | 1.56 (≈ 3.11 µM) | 12.5 (≈ 24.9 µM) | – | – | – | – | – | – | O=C(O)c1cn(-c2ccc(F)cc2F)c2nc(N3CCC(NC(=O)C4CCCN4)C3)c(F)cc2c1=O (stereo not drawn) [Example 28] |
| 16 (≈ 25.7 µM) | – | 16 (≈ 25.7 µM) | 128 (≈ 206 µM) | 590 (≈ 948 µM) | > 20000 | – | – | – | – | CC(N)C(=O)NC(Cc1ccccc1)C(=O)NC1CCN(c2nc3c(cc2F)c(=O)c(C(=O)O)cn3-c2ccc(F)cc2F)C1 (stereo not drawn) [Example 11] |
| – | – | – | – | 14 (≈ 36.2 µM) | 1400 (≈ 3620 µM) | – | – | – | – | NC1CCN(c2nc3c(cc2F)c(=O)c(C(=O)O)cn3-c2ccc(F)cc2)C1 (stereo not drawn) [A, 7-(3-amino-1-pyrrolidinyl)-6-fluoro-1-(4-fluorophenyl)-1,4-dihydro-4-oxo-1,8-naphthyridine-3-carboxylic acid, reference compound] |
| – | – | – | – | 1030 (≈ 1790 µM) | 26000 (≈ 45300 µM) | – | – | – | – | CCC[C@H](NC(=O)[C@H](C)N)C(=O)NC1CCN(c2nc3c(cc2F)c(=O)c(C(=O)O)cn3-c2ccc(F)cc2F)C1 (stereo partly drawn) [Example 55b, 7-(3-Ala-Nval-amino-1-pyrrolidinyl)-6-fluoro-1-(2,4-difluorophenyl)-1,4-dihydro-4-oxo-1,8-naphthyridine-3-carboxylic acid] |
| – | – | – | – | – | – | – | 3.1 (≈ 7.18 µM) | 0.39 (≈ 0.904 µM) | 1.56 (≈ 3.62 µM) | CCCC(N)C(=O)NC1CCN(c2nc3c(cc2F)c(=O)c(C(=O)O)cn3C2CC2)C1 (stereo not drawn) [Example 26p] |
| – | – | – | – | – | – | 16 | 32 | 16 | 64 | Cl.NCC(=O)N[C@@H](Cc1ccccc1)C(=O)NC1CCN(c2cc3c(cc2F)c(=O)c(C(=O)O)cn3-c2ccc(F)cc2F)C1 (stereo partly drawn) [Example 26jj, 1-(2,4-Difluorophenyl)-6-Fluoro-7-(3-Gly-L-Phe -Amino-1-Pyrrolidinyl)-1,4-Dihydro-4-Oxo-Quinoline-3-Carboxylic Acid Hydrochloride] |

| Structure (SMILES) | MIC [1, 6] [µg/mL] | MIC [2, 7] [µg/mL] | MIC [3, 8] [µg/mL] | MIC [4, 9] [µg/mL] | solubility ([5]; pH 7.4) [µg/mL] | solubility ([5]; water) [µg/mL] | MIC [1] [µg/mL] | MIC [2, 10] [µg/mL] | MIC [3] [µg/mL] | MIC [4] [µg/mL] |
| --- | --- | --- | --- | --- | --- | --- | --- | --- | --- | --- |
| CCC[C@H](NC(=O)[C@@H](N)CCC)C(=O)NC1CCN(c2nc3c(cc2F)c(=O)c(C(=O)O)cn3-c2ccc(F)cc2F)C1 (stereo partly drawn) [Example 3b, 7-(3-L-Norvaline-L-Norvalineamino-1-pyrrolidinyl)-1-(2,4-difluorophenyl)-6-fluoro-1,4-dihydro-4-oxo-1,8-naphthyridine-3-carboxylic acid hydrochloride] | 25 | 12.5 | 12.5 | 50 | 680 | > 40000 | – | – | – | – |
